From publication PMC10835127, “Viruses traverse the human proteome through peptide interfaces that can be biomimetically leveraged for drug discovery” (Proceedings of the National Academy of Sciences of the …, 2024)
Like-named read-outs stand apart in the source and are kept apart here.

Assays:
influenza A H1N1 virus = conditions: 48 hr post-treatment, A549
EBV = conditions: normalized mean of EBV replication readout
HIV1 strain NL4-3 = type: cell-based; conditions: normalized mean of HIV1 replication readout
[1] = test system: F. novicida (strain U112); type: cell-based
HCV replicon = type: cell-based; conditions: normalized mean of HCV replicon readout

EPLDLPPIIQ [CPEP45]
Neuraminidase activity normalized to vehicle (influenza A H1N1 virus; 200 µM peptide): 0,7336 | Neuraminidase activity normalized to vehicle (influenza A H1N1 virus; 0,823 µM peptide): 0,9966 | Neuraminidase activity normalized to vehicle (influenza A H1N1 virus; 22,2 µM peptide): 0,8381 | Neuraminidase activity normalized to vehicle (influenza A H1N1 virus; 2,4691 µM peptide): 0,9443 | Neuraminidase activity normalized to vehicle (influenza A H1N1 virus; 7,4074 µM peptide): 0,9188 | Neuraminidase activity normalized to vehicle (influenza A H1N1 virus; 66,6667 µM peptide): 0,7574 | EBV Norm MEAN (EBV): 0.6832 | HIV1 Norm MEAN (HIV1 strain NL4-3): 0.3392 | Francisella novicida Norm AUC [1]: 1.0611 | HCV Norm MEAN (HCV replicon): 1.078

DDLYEEV [CPEP111]
Neuraminidase activity normalized to vehicle (influenza A H1N1 virus; 200 µM peptide): 0,7987 | Neuraminidase activity normalized to vehicle (influenza A H1N1 virus; 0,823 µM peptide): 0,9384 | Neuraminidase activity normalized to vehicle (influenza A H1N1 virus; 22,2 µM peptide): 0,8898 | Neuraminidase activity normalized to vehicle (influenza A H1N1 virus; 2,4691 µM peptide): 0,8026 | Neuraminidase activity normalized to vehicle (influenza A H1N1 virus; 7,4074 µM peptide): 0,8887 | Neuraminidase activity normalized to vehicle (influenza A H1N1 virus; 66,6667 µM peptide): 0,8909 | EBV Norm MEAN (EBV): 0.5736 | HIV1 Norm MEAN (HIV1 strain NL4-3): 0.957 | Francisella novicida Norm AUC [1]: 0.6875 | HCV Norm MEAN (HCV replicon): 0.2545

LGNIKGILGKKDKDG [CPEP51]
Neuraminidase activity normalized to vehicle (influenza A H1N1 virus; 200 µM peptide): 1,0387 | Neuraminidase activity normalized to vehicle (influenza A H1N1 virus; 0,823 µM peptide): 0,8902 | Neuraminidase activity normalized to vehicle (influenza A H1N1 virus; 22,2 µM peptide): 0,9184 | Neuraminidase activity normalized to vehicle (influenza A H1N1 virus; 2,4691 µM peptide): 0,9673 | Neuraminidase activity normalized to vehicle (influenza A H1N1 virus; 7,4074 µM peptide): 0,9421 | Neuraminidase activity normalized to vehicle (influenza A H1N1 virus; 66,6667 µM peptide): 1,0486 | EBV Norm MEAN (EBV; peptide screen): 0.7752 | HIV1 Norm MEAN (HIV1 strain NL4-3; peptide screen): 0.5462 | Francisella novicida Norm AUC [1]: 1.389 | HCV Norm MEAN (HCV replicon; peptide screen): 0.7895

QILVESPTVLESGTKE [CPEP80]
Neuraminidase activity normalized to vehicle (influenza A H1N1 virus; 200 µM peptide): 0,8685 | Neuraminidase activity normalized to vehicle (influenza A H1N1 virus; 0,823 µM peptide): 1,0444 | Neuraminidase activity normalized to vehicle (influenza A H1N1 virus; 22,2 µM peptide): 1,1492 | Neuraminidase activity normalized to vehicle (influenza A H1N1 virus; 2,4691 µM peptide): 1,0137 | Neuraminidase activity normalized to vehicle (influenza A H1N1 virus; 7,4074 µM peptide): 1,0974 | Neuraminidase activity normalized to vehicle (influenza A H1N1 virus; 66,6667 µM peptide): 0,9708 | EBV Norm MEAN (EBV; peptide screen): 0.8761 | HIV1 Norm MEAN (HIV1 strain NL4-3; peptide screen): 0.6346 | Francisella novicida Norm AUC [1]: 0.9366 | HCV Norm MEAN (HCV replicon; peptide screen): 0.9076

EDLLNEPGQPLDLSC [CPEP104]
Neuraminidase activity normalized to vehicle (influenza A H1N1 virus; 200 µM peptide): 0,8372 | Neuraminidase activity normalized to vehicle (influenza A H1N1 virus; 0,823 µM peptide): 0,8247 | Neuraminidase activity normalized to vehicle (influenza A H1N1 virus; 22,2 µM peptide): 0,8954 | Neuraminidase activity normalized to vehicle (influenza A H1N1 virus; 2,4691 µM peptide): 0,9133 | Neuraminidase activity normalized to vehicle (influenza A H1N1 virus; 7,4074 µM peptide): 0,8771 | Neuraminidase activity normalized to vehicle (influenza A H1N1 virus; 66,6667 µM peptide): 0,8952 | EBV Norm MEAN (EBV; peptide screen): 0.504 | HIV1 Norm MEAN (HIV1 strain NL4-3; peptide screen): 0.2933 | Francisella novicida Norm AUC [1]: 1.073 | HCV Norm MEAN (HCV replicon; peptide screen): 1.128

PVHAGPIAPGQMREP [CPEP81]
Neuraminidase activity normalized to vehicle (influenza A H1N1 virus; 200 µM peptide): 0,9395 | Neuraminidase activity normalized to vehicle (influenza A H1N1 virus; 0,823 µM peptide): 0,9268 | Neuraminidase activity normalized to vehicle (influenza A H1N1 virus; 22,2 µM peptide): 1,0319 | Neuraminidase activity normalized to vehicle (influenza A H1N1 virus; 2,4691 µM peptide): 1,0385 | Neuraminidase activity normalized to vehicle (influenza A H1N1 virus; 7,4074 µM peptide): 1,0221 | Neuraminidase activity normalized to vehicle (influenza A H1N1 virus; 66,6667 µM peptide): 1,026 | EBV Norm MEAN (EBV; peptide screen): 0.3978 | HIV1 Norm MEAN (HIV1 strain NL4-3; peptide screen): 0.8771 | Francisella novicida Norm AUC [1]: 1.038 | HCV Norm MEAN (HCV replicon; peptide screen): 0.6759

CPEP74: peptide of the viral peptide library; sequence page not shown (ALGISYGRKKRRQ)
Neuraminidase activity normalized to vehicle (influenza A H1N1 virus; 200 µM peptide): 0,8907 | Neuraminidase activity normalized to vehicle (influenza A H1N1 virus; 0,823 µM peptide): 0,913 | Neuraminidase activity normalized to vehicle (influenza A H1N1 virus; 22,2 µM peptide): 0,9469 | Neuraminidase activity normalized to vehicle (influenza A H1N1 virus; 2,4691 µM peptide): 1,0192 | Neuraminidase activity normalized to vehicle (influenza A H1N1 virus; 7,4074 µM peptide): 0,9165 | Neuraminidase activity normalized to vehicle (influenza A H1N1 virus; 66,6667 µM peptide): 0,9895 | EBV Norm MEAN (EBV): 1.663 | HIV1 Norm MEAN (HIV1 strain NL4-3): 1.112 | Francisella novicida Norm AUC [1]: 1.149 | HCV Norm MEAN (HCV replicon): 0.6842

QRRGRTGRG [CPEP40]
Neuraminidase activity normalized to vehicle (influenza A H1N1 virus; 200 µM peptide): 0,9281 | Neuraminidase activity normalized to vehicle (influenza A H1N1 virus; 0,823 µM peptide): 1,0647 | Neuraminidase activity normalized to vehicle (influenza A H1N1 virus; 22,2 µM peptide): 1,004 | Neuraminidase activity normalized to vehicle (influenza A H1N1 virus; 2,4691 µM peptide): 0,9944 | Neuraminidase activity normalized to vehicle (influenza A H1N1 virus; 7,4074 µM peptide): 1,0761 | Neuraminidase activity normalized to vehicle (influenza A H1N1 virus; 66,6667 µM peptide): 0,9318 | EBV Norm MEAN (EBV): 0.7195 | HIV1 Norm MEAN (HIV1 strain NL4-3): 0.4037 | Francisella novicida Norm AUC [1]: 1.732 | HCV Norm MEAN (HCV replicon): 0.7133

AAAVAFL [CPEP117]
Neuraminidase activity normalized to vehicle (influenza A H1N1 virus; 200 µM peptide): 0,72 | Neuraminidase activity normalized to vehicle (influenza A H1N1 virus; 0,823 µM peptide): 0,8345 | Neuraminidase activity normalized to vehicle (influenza A H1N1 virus; 22,2 µM peptide): 0,8782 | Neuraminidase activity normalized to vehicle (influenza A H1N1 virus; 2,4691 µM peptide): 0,8234 | Neuraminidase activity normalized to vehicle (influenza A H1N1 virus; 7,4074 µM peptide): 0,8773 | Neuraminidase activity normalized to vehicle (influenza A H1N1 virus; 66,6667 µM peptide): 0,8792 | EBV Norm MEAN (EBV): 1.118 | HIV1 Norm MEAN (HIV1 strain NL4-3): 0.6808 | Francisella novicida Norm AUC [1]: 0.9738 | HCV Norm MEAN (HCV replicon): 0.1615

CPEP96: peptide of the viral peptide library; sequence page not shown (GRKKRRQRRRAHQ)
Neuraminidase activity normalized to vehicle (influenza A H1N1 virus; 200 µM peptide): 0,8043 | Neuraminidase activity normalized to vehicle (influenza A H1N1 virus; 0,823 µM peptide): 0,9089 | Neuraminidase activity normalized to vehicle (influenza A H1N1 virus; 22,2 µM peptide): 0,9748 | Neuraminidase activity normalized to vehicle (influenza A H1N1 virus; 2,4691 µM peptide): 0,9539 | Neuraminidase activity normalized to vehicle (influenza A H1N1 virus; 7,4074 µM peptide): 0,8942 | Neuraminidase activity normalized to vehicle (influenza A H1N1 virus; 66,6667 µM peptide): 0,9344 | EBV Norm MEAN (EBV; peptide screen): 1.164 | HIV1 Norm MEAN (HIV1 strain NL4-3; peptide screen): 0.5669 | Francisella novicida Norm AUC [1]: 1.029 | HCV Norm MEAN (HCV replicon; peptide screen): 0.3919
